According to BigSolDB 2.1:

O=c1c(-c2ccc(O)cc2)coc2cc(O[C@@H]3O[C@H](CO)[C@@H](O)[C@H](O)[C@H]3O)ccc12
solubility (mole fraction)
Details	283.2 K	293.2 K	303.2 K	313.2 K	323.2 K
in THF	0.000784	0.00182	0.00684	0.0165	0.0417
in acetone	0.000148	0.000241	0.000326	0.000458	0.000553
in acetonitrile	5.77e-06	9e-06	1.4e-05	2e-05	3.3e-05
in chloroform	3.83e-07	8.76e-07	1.6e-06	2.36e-06	3.2e-06
in cyclohexane	1.25e-07	2.95e-07	5.56e-07	1.02e-06	1.37e-06
in ethanol	0.000291	0.000397	0.000499	0.000669	0.000813
in ethyl acetate	5.38e-06	7.88e-06	1.58e-05	4.24e-05	6.74e-05
in isopropanol	0.00016	0.000202	0.000283	0.000427	0.000503
in methanol	8.78e-05	0.000162	0.000339	0.000516	0.000794
in n-butanol	0.000141	0.000211	0.000253	0.000353	0.000479
in water	2.36e-06	4.1e-06	6.91e-06	9.39e-06	1.58e-05
